Results taken from US6110939A, “(Benzimidazolyl- and imidazopyridinyl) containing 1-(1,2-disubstituted piperidinyl) derivatives” (Janssen Pharmaceutica N.V., priority 1995, dated 2000).

Tested on: substance P induced relaxation of the pig coronary arteries
Assay: Antagonism of substance P induced relaxation of the pig coronary arteries
Format: cell-based
Details: Sus scrofa, 0.5 h, response to 10^-9 M substance P, 30 min incubation; for inhibition at 0.003 µM: test compound 3 × 10^-9; for inhibition at 0.03 µM: test compound 3 × 10^-8
Description: Antagonism of substance P induced relaxation of the pig coronary arteries
Segments of coronary arteries taken from pigs (killed by injection of an overdose of sodium pentobarbital) were inverted and mounted for recording of isometric tension in organ baths (volume 20 ml) with the endothelium at the outside. The preparations were bathed in Krebs - Henseleit solution. The solution was kept at 37° C. and gassed with a mixture of O2 /CO2 (95/5). After stabilisation of the preparations, prostaglandin F2α (10^-5 M) was administered to induce a contraction. This was repeated until contractile responses became stable. Then prostaglandin F2α was again administered and substance P (3×10^-10 M and 10^-9 M cumulatively) was added. […] After washing away the agonists, a known concentration of a compound of formula (I) was added. After an incubation period of 30 minutes, prostaglandin F2α (10^-5 M) and the same concentrations of substance P as described above were again administered in the presence of the compound to be tested.

| SMILES | inhibition at 0.003 µM [%] | inhibition at 0.03 µM [%] | also measured |
| --- | --- | --- | --- |
| O=C(c1cc(C(F)(F)F)cc(C(F)(F)F)c1)N1CC[C@@H](N2CCC(Cc3nc4ccccc4n3Cc3ccc(F)cc3)CC2)C[C@@H]1Cc1ccccc1 (relative stereo) [Compound 33] | 56.8 | – | – |
| Cc1ncc(Cn2c(NC3CCN([C@@H]4CCN(C(=O)c5cccs5)[C@@H](Cc5ccccc5)C4)CC3)nc3ccccc32)o1 (relative stereo) [Compound 56] | 8.7 | – | – |
| O=C(c1cc(C(F)(F)F)cc(C(F)(F)F)c1)N1CC[C@@H](N2CCC(Nc3nc4ccccc4n3Cc3ccc(F)cc3)CC2)C[C@@H]1Cc1ccccc1 (relative stereo) [Compound 27] | – | 92.8 | – |
| O=C(c1cc(C(F)(F)F)cc(C(F)(F)F)c1)N1CC[C@H](N2CCC(Oc3nc4ccccc4n3Cc3ccc(F)cc3)CC2)C[C@@H]1Cc1ccccc1 (relative stereo) [Compound 24] | – | 100 | – |
| Cc1cc(C)cc(C(=O)N2CC[C@@H](N3CCC(Nc4nc5ccccc5n4Cc4cccs4)CC3)C[C@@H]2Cc2ccccc2)c1 (relative stereo) [Compound 8] | – | – | inhibition at 0.01 µM (test compound 1 × 10^-8): 14.7% |
| CCOCCn1c(N[C@@H]2CCN(C(=O)c3cc(C(F)(F)F)cc(C(F)(F)F)c3)[C@H](Cc3ccc(F)c(F)c3)C2)nc2ccccc21 (relative stereo) [Compound 148] | – | 100 | – |
| Cc1ccc(Cn2c(C(O)C3CCN([C@H]4CCN(C(=O)c5cc(C(F)(F)F)cc(C(F)(F)F)c5)[C@@H](Cc5ccccc5)C4)CC3)nc3ccccc32)o1 (stereo partly drawn) [Compound 22] | 89.4 | – | – |
| Cc1cc(C)cc(C(=O)N2CC[C@H](N3CCC(Cc4nc5ccccc5n4Cc4csc(C)n4)CC3)C[C@@H]2Cc2ccccc2)c1 (relative stereo) [Compound 11] | – | 81.1 | – |
| Cc1ncc(Cn2c(OC3CCN([C@@H]4CCN(C(=O)c5cc(C(F)(F)F)cc(C(F)(F)F)c5)[C@H](Cc5ccccc5)C4)CC3)nc3ccccc32)o1 (relative stereo) [Compound 36] | 66 | – | – |
| Cc1ccc(Cn2c(NC3CCN([C@@H]4CCN(C(=O)c5cc(C(F)(F)F)cc(C(F)(F)F)c5)[C@H](Cc5ccccc5)C4)CC3)nc3ccccc32)o1 (relative stereo) [Compound 28] | – | 100 | – |
| CCOCCn1c(N[C@@H]2CCN(C(=O)c3cc(C(F)(F)F)cc(C(F)(F)F)c3)[C@@H](Cc3ccc(F)c(F)c3)C2)nc2ccccc21 (relative stereo) [Compound 147] | – | 95.6 | – |
| O=C(c1cc(C(F)(F)F)cc(C(F)(F)F)c1)N1CC[C@@H](N2CCC(Cc3nc4ccccc4n3Cc3ccc(F)cc3)CC2)C[C@H]1Cc1ccccc1 (relative stereo) [Compound 40] | – | 93.3 | – |
| Cc1cc(C)cc(C(=O)N2CC[C@@H](N3CCC(Nc4nc5ccccc5n4Cc4cscn4)CC3)C[C@@H]2Cc2ccccc2)c1 (relative stereo) [Compound 10] | – | 89.3 | – |
| Cc1ncc(Cn2c(NC3CCN([C@H]4CCN(C(=O)c5cc(C(F)(F)F)cc(C(F)(F)F)c5)[C@@H](Cc5ccccc5)C4)CC3)nc3ccccc32)o1 (relative stereo) [Compound 15] | – | 84.6 | – |
| Cc1ncc(Cn2c(N[C@@H]3CCN(C(=O)c4ccco4)[C@@H](Cc4ccccc4)C3)nc3ccccc32)o1 (relative stereo) [Compound 46] | 17.6 | – | – |
